≈ marks a conversion by molar mass, not a printed value.
Columns and labels:
Type in all cases: cell-based
Pythium aphanodermatum = test: Broth microdilution MIC of individual antifungals; settings: individual antifungal, 25% PDB, about 25° C., 72 hours, range over N independent triplicate studies
[1] = test system: Fusarium solani f. sp. pisi (MP VI); test: Broth microdilution MIC of individual antifungals; settings: Fusarium solani f. sp. pisi (MP VI); individual antifungal, 25% PDB, about 25° C., 72 hours; range over N independent triplicate studies; read-out: Independent MIC
Rhizoctonia solani = test: Broth microdilution MIC of individual antifungals; settings: individual antifungal, 25% PDB, about 25° C., 72 hours, range over N independent triplicate studies, read-out: Independent MIC
[2] = test system: Fusarium oxysporum f. sp. lycopersici; test: Broth microdilution MIC of individual antifungals; settings: individual antifungal, 25% PDB, about 25° C., 72 hours, range over N independent triplicate studies
Aspergillus flavus = test: Broth microdilution MIC of individual antifungals; settings: individual antifungal, 25% PDB, about 25° C., 72 hours, range over N independent triplicate studies, read-out: Independent MIC
Aspergillus niger = test: Broth microdilution MIC of individual antifungals; settings: individual antifungal, 25% PDB, about 25° C., 72 hours, range over N independent triplicate studies, read-out: Independent MIC
[3] = test system: two dozen different fungal organisms; test: Broth microdilution MIC, summary over the organisms examined; settings: by itself, against the organisms examined (Table 1); regularly
Protocol: All antifungal susceptibility assays were conducted in triplicate and N independent times. Thus, the inhibition studies were conducted a total of 3·N times. […] Thus, each synergy assay (combination of two antifungals) was conducted in conjunction with independent MIC determination. FICI values were calculated by comparing the inhibition activity of the combination (benzoxaborole+another antifungal) against the efficacy of the individual antifungal within the same experiment (using the same experimental conditions).
The studies were performed in flat bottom, 96-well microtiter plates (Greiner Bio-One).
Plates sealed with clear polyester film (VWR) were incubated at a temperature of about 25° C. The progress of fungal growth was monitored at 48 hours, 72 hours, 7 days, and 15 days. […] In order to establish appropriate comparison between the different fungi, the FICI (thus, the MICs used) determination was done at 72 hours for all cases discussed herein.
The MICs of the individual antifungals (MICBoron and MICA) and in combination (MICBA) were determined after 72 hours of incubation. […] MICA is defined as the MIC value of every other individual non-benzoxaborole-based antifungal. MICBA is defined as the MIC value when the benzoxaborole antifungal is combined with another non-benzoxaborole antifungal. […] The combination studies were performed in triplicate in flat bottom 96-well microtiter plates with a final media volume of 0.2 mL/well.

Phytophthora pini = test: Broth microdilution MIC of individual antifungals; settings: individual antifungal, 25% PDB, about 25° C., 72 hours, range over N independent triplicate studies
Magnaporthe grisea = test: microbe, parasite or virus in culture; settings: Pyricularia oryzae, 72 h, read-out: Independent MIC
Sclerotinia homoeocarpa = test: Broth microdilution MIC of individual antifungals; settings: Clarireedia homoeocarpa; Sclerotinia homoeocarpa; individual antifungal, 25% PDB, about 25° C., 72 hours; range over N independent triplicate studies; read-out: Independent MIC
Candida albicans = test: Broth microdilution MIC of individual antifungals; settings: individual antifungal, 25% PDB, about 25° C., 72 hours, range over N independent triplicate studies, read-out: Independent MIC
[4] = test system: Colletotrichum orbiculare; test: Broth microdilution MIC of individual antifungals; settings: individual antifungal, 25% PDB, about 25° C., 72 hours, range over N independent triplicate studies, read-out: Independent MIC
Botrytis cinerea 10-1728 = test: Broth microdilution MIC of individual antifungals; settings: 101728; Botrytis cinerea 10-1728; individual antifungal, 25% PDB, about 25° C., 72 hours; range over N independent triplicate studies; read-out: Independent MIC
Penicillium chrysogenum = test: Broth microdilution MIC of individual antifungals; settings: individual antifungal, 25% PDB, about 25° C., 72 hours, range over N independent triplicate studies, read-out: Independent MIC
Mucor sp. = test: Broth microdilution MIC of individual antifungals; settings: individual antifungal, 25% PDB, about 25° C., 72 hours, range over N independent triplicate studies
[5] = test system: Mycosphaerella zeae-maydis; test: Broth microdilution MIC of individual antifungals; settings: Didymella maydis, individual antifungal, 25% PDB, about 25° C., 72 hours, range over N independent triplicate studies
Stachybotrys chartarum = test: Broth microdilution MIC of individual antifungals; settings: individual antifungal, 25% PDB, about 25° C., 72 hours, range over N independent triplicate studies, read-out: Independent MIC
Aureobasidium pullulans = test: Broth microdilution MIC of individual antifungals; settings: individual antifungal, 25% PDB, about 25° C., 72 hours, range over N independent triplicate studies, read-out: Independent MIC
Fusarium verticillioides = test: Broth microdilution MIC of individual antifungals; settings: individual antifungal, 25% PDB, about 25° C., 72 hours, range over N independent triplicate studies, read-out: Independent MIC
Alternaria solani = test: Broth microdilution MIC of individual antifungals; settings: individual antifungal, 25% PDB, about 25° C., 72 hours, range over N independent triplicate studies, read-out: Independent MIC
Rhizopus sp. = test: Broth microdilution MIC of individual antifungals; settings: Rhizopus, 72 h, Rhizopus sp.; individual antifungal, 25% PDB, about 25° C., 72 hours; range over N independent triplicate studies; read-out: Independent MIC
Botrytis cinerea B17 = test: Broth microdilution MIC of individual antifungals; settings: Botrytis cinerea B17; individual antifungal, 25% PDB, about 25° C., 72 hours; range over N independent triplicate studies; read-out: Independent MIC
Fusarium graminearum = test: microbe, parasite or virus in culture; settings: Fusarium graminearum, 72 h, read-out: Independent MIC
Fusarium oxysporum ST33 = test: Broth microdilution MIC of individual antifungals; settings: individual antifungal, 25% PDB, about 25° C., 72 hours, range over N independent triplicate studies
Aspergillus fumigatus = test: Broth microdilution MIC of individual antifungals; settings: individual antifungal, 25% PDB, about 25° C., 72 hours, range over N independent triplicate studies, read-out: Independent MIC

OB1OCc2cc(Cl)ccc21 [B18, 5-chloro-1,3-dihydro-2,1-benzoxaborol-1-ol]
MIC (Pythium aphanodermatum): 0.25 to 2 µg/mL | MIC [1]: 0.5 µg/mL | MIC (Rhizoctonia solani): 1.56 to 8 µg/mL | MIC [2]: 0.25 µg/mL | MIC (Aspergillus flavus): 0.5 to 1 µg/mL | MIC (Aspergillus niger): 0.5 to 2 µg/mL | MIC [3]: ≤ 4 µg/mL | MIC (Phytophthora pini): 0.125 µg/mL | MIC (Magnaporthe grisea): 0.39 to 1.56 µg/mL (≈ 2.32 to 9.26 µM) | MIC (Sclerotinia homoeocarpa): 1 to 4 µg/mL | MIC (Candida albicans): 0.5 to 1 µg/mL | MIC [4]: 0.78 µg/mL | MIC (Botrytis cinerea 10-1728): 0.5 to 2 µg/mL | MIC (Penicillium chrysogenum): 0.19 to 0.38 µg/mL | MIC (Mucor sp.): 0.5 to 1 µg/mL | MIC [5]: 4 to 8 µg/mL | MIC (Stachybotrys chartarum): 0.25 to 1 µg/mL | MIC (Aureobasidium pullulans): 0.125 µg/mL | MIC (Fusarium verticillioides): 0.25 to 0.5 µg/mL | MIC (Alternaria solani): 0.5 µg/mL | MIC (Rhizopus sp.): 0.5 to 2 µg/mL | MIC (Botrytis cinerea B17): 0.5 µg/mL | MIC (Fusarium graminearum): 1 µg/mL (≈ 5.94 µM) | MIC (Fusarium oxysporum ST33): 0.5 µg/mL | MIC (Aspergillus fumigatus): 0.125 to 0.25 µg/mL
